Results on four compounds are retold here after article PMC9457941, “Synthesis and Kinase Inhibitory Potencies of Pyrazolo[3,4-g]isoquinolines” (Molecules, 2022).

T7 sequence (P22518 whole entry): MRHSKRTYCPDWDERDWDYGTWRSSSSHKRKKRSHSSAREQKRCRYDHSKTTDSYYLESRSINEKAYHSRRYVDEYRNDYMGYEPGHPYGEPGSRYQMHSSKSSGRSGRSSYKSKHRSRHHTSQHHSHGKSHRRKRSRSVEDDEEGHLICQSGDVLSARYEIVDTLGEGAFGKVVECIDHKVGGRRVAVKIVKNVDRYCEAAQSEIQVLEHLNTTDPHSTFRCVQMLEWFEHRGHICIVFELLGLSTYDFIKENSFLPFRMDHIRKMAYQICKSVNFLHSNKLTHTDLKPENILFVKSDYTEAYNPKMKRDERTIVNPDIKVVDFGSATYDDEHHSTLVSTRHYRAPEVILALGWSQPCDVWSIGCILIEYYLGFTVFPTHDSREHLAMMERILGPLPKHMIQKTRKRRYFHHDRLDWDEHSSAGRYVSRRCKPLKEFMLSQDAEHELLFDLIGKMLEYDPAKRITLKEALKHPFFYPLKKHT
T8 sequence (P49674 whole entry): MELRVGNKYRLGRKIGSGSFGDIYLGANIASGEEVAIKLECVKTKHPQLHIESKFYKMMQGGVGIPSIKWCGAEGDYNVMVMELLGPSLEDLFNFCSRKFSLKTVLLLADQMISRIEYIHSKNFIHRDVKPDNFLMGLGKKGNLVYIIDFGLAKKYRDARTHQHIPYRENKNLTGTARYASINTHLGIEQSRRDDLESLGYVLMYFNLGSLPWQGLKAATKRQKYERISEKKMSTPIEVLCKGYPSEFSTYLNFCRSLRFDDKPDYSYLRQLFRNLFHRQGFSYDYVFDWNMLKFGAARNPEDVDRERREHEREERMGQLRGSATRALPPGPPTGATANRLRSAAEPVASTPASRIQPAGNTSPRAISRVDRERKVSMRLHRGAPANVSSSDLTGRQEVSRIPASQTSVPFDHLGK

For the first data set, the target named is T1, Pim-1 (Homo sapiens, UniProt P11309).
T1 construct: host or cells: bacteria
T1 sequence (P11309 whole entry): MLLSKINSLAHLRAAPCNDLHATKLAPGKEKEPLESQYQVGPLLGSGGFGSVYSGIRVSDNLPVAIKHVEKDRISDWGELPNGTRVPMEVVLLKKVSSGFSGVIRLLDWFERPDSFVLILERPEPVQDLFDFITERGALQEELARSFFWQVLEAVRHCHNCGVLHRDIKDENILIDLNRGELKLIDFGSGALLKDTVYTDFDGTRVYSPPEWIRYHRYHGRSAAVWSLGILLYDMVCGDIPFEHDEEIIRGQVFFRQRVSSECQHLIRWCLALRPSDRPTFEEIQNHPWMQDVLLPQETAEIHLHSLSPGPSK
In words: ADP-Glo kinase inhibition assay, Pim-1. Format: biochemical. The conditions noted are these: 1 μM compound, 10 μM ATP, duplicate; read-out: PIM1 % residual activity at 1 μM. On the procedure: (§1) Kinase enzymatic activities were assayed in 384 well plates using the ADP-GloTM assay kit (Promega, Madison, WI, USA) according to the manufacturer’s guidance. Briefly, the reactions were carried out in a final volume of 6 μL for 30 min at 30 °C in an appropriate kinase buffer (10 mM MgCl2, 1 mM EGTA, 1 mM DTT, 25 mM Tris-HCl pH 7.5, 50 μg/mL heparin), with either protein or peptide as substrate in the presence of 10 μM ATP (40 mM Tris pH 7.5, 20 mM MgCl2 and 0.1 mg/mL of BSA). Afterward, 6 μL of ADP-GloTM Kinase Reagent was added to stop the kinase reaction. After an incubation time of 50 min at room temperature (RT), 12 μL of Kinase Detection Reagent was added for 1 h at RT. The transmitted signal was measured using the Envision (Perkin Elmer, Waltham, MA, USA) microplate luminometer and expressed in relative light unit (RLU). In order to determine the half maximal inhibitory concentration (IC50), the assays were performed in duplicate in the absence or presence of increasing doses of the tested compounds. GraphPad Prism6 software (GraphPad Software, San Diego, CA, USA) was used to fit dose–response curves and to determine the IC50 values. Kinase activities are expressed in the percentage of maximal activity, i.e., measured in the absence of an inhibitor. Peptide substrates were obtained from Proteogenix (Schiltigheim, France).
(§2) The following protein kinases were analyzed in this study: CDK5/p25 (human, recombinant, expressed in bacteria) was assayed with 0.8 μg/μL of histone H1 as substrate; CDK9/CyclinT (human, recombinant, expressed by baculovirus in Sf9 insect cells) were assayed with 0.27 μg/μL of the following peptide: […], as substrate; CK1ε (human, recombinant, expressed by baculovirus in Sf9 insect cells) was assayed with 0.022 μg/μL of the following peptide: […]pAYSITA (“Sp” stands for phosphorylated serine) as CK1-specific substrate; GSK3β (human, recombinant, expressed by baculovirus in Sf9 insect cells) were assayed with 0.010 μg/μL of GS-1 peptide, a GSK-3-selective substrate ([…]pEDEEE); Haspin-kd (human, kinase domain, amino acids 470–798, recombinant, expressed in bacteria) was assayed with 0.007 μg/μL of histone H3 (1–21) peptide ([…]) as substrate; Pim-1 (human proto-oncogene, recombinant, expressed in bacteria) was assayed with 0.8 μg/μL of histone H1 as substrate; MmCLK1 (from Mus musculus, recombinant, expressed in bacteria) was assayed with 0.027 μg/μL of the following peptide: […] as substrate; RnDYRK1A-kd (Rattus norvegicus, amino acids 1–499 including the kinase domain, recombinant, expressed in bacteria, DNA vector kindly provided by Dr. W. Becker, Aachen, Germany) was assayed with 0.033 μg/μL of the following peptide: […] as substrate.
For orientation: In ADP-Glo the light output rises with the ADP produced.
`CCn1ncc2cc3cncc(Br)c3c([N+](=O)[O-])c21` [Compound 4, 8-Bromo-1-ethyl-9-nitro-1H-pyrazolo[3,4-g]isoquinoline]: the remaining activity at 1 µM was determined as 77%.

The data set is the same for the next values; noted with them: 10 μM compound, 10 μM ATP, duplicate; read-out: PIM1 % residual activity at 10 μM.
For `CCn1ncc2cc3cncc(Br)c3c([N+](=O)[O-])c21` [Compound 4, 8-Bromo-1-ethyl-9-nitro-1H-pyrazolo[3,4-g]isoquinoline], the remaining activity at 10 µM stood at 54%.

A further data set concerns the target T2, Haspin-kd (human, kinase domain, amino acids 470–798) (Homo sapiens, UniProt Q8TF76).
T2 construct: Haspin-kd (human, kinase domain, amino acids 470–798, recombinant, expressed in bacteria); host or cells: bacteria
T2 sequence (Q8TF76 470-798): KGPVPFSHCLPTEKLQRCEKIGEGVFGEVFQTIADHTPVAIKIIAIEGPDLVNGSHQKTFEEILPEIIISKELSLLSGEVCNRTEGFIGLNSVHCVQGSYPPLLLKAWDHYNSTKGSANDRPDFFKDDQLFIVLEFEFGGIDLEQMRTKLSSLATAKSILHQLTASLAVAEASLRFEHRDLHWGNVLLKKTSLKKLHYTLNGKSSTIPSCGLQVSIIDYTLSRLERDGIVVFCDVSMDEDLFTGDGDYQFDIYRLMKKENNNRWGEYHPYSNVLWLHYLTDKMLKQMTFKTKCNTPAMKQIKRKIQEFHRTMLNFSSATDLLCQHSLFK
In words: ADP-Glo kinase inhibition assay, Haspin. Format: biochemical. Particulars: read-out: Haspin % residual activity at 1 μM. Here is the method:
as §1
Take `CCn1ncc2cc3cncc(Br)c3c([N+](=O)[O-])c21` [Compound 4, 8-Bromo-1-ethyl-9-nitro-1H-pyrazolo[3,4-g]isoquinoline]: the remaining activity at 1 µM worked out at 77%.

Still in this data set, the particulars now being: read-out: Haspin % residual activity at 10 μM.
`CCn1ncc2cc3cncc(Br)c3c([N+](=O)[O-])c21` [Compound 4, 8-Bromo-1-ethyl-9-nitro-1H-pyrazolo[3,4-g]isoquinoline]: the remaining activity at 10 µM was determined as 23%.

Still in this data set, the particulars now being: read-out: Haspin inhibition at 1 μM, 1 μM compound, % inhibition.
Turning to `CCn1ncc2cc3cncc(Br)c3c([N+](=O)[O-])c21` [Compound 4, 8-Bromo-1-ethyl-9-nitro-1H-pyrazolo[3,4-g]isoquinoline], the inhibition (usually the relative decrease from the control value, in per cent) at 1 µM was 23%.

The target in the next data set is T3, CDK9/CyclinT (Homo sapiens, UniProt P50750).
T3 construct: host or cells: Sf9 insect cells (baculovirus)
T3 sequence (O60563 whole entry): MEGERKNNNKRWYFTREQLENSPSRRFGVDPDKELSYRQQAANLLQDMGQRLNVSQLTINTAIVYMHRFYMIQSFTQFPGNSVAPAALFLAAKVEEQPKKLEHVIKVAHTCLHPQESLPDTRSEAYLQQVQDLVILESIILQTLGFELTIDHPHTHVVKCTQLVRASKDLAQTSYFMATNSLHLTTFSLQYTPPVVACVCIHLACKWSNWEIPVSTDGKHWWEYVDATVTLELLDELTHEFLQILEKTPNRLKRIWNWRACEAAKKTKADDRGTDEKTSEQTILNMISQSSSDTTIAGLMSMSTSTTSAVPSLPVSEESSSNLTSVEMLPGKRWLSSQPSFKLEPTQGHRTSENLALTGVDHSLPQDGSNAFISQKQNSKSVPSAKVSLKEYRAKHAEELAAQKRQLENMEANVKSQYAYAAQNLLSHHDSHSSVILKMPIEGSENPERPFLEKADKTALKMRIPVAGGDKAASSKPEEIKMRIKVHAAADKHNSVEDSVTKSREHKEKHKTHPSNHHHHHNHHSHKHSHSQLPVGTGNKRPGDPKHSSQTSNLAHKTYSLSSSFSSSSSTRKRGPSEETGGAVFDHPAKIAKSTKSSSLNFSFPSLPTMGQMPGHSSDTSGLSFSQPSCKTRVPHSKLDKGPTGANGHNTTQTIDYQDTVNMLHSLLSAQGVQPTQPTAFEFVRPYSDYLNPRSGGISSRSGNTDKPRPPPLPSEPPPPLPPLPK
T3 sequence (P50750 whole entry): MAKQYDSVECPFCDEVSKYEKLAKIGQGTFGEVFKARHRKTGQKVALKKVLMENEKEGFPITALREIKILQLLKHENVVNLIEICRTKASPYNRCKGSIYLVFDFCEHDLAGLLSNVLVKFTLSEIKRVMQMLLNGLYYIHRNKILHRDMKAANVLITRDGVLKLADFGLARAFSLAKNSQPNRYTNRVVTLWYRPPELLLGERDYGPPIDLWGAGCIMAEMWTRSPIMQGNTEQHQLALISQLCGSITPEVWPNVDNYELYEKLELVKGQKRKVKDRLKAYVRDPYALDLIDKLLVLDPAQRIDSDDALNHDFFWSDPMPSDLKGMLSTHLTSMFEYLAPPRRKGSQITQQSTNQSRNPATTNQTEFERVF
In words: ADP-Glo kinase inhibition assay, CDK9/CyclinT. Format: biochemical. The conditions noted are these: read-out: CDK9 % residual activity at 1 μM. On the procedure:
as §1, §2
Consider `CCn1ncc2cc3cncc(Br)c3c([N+](=O)[O-])c21` [Compound 4, 8-Bromo-1-ethyl-9-nitro-1H-pyrazolo[3,4-g]isoquinoline], for which the remaining activity at 1 µM is 59%.

The same data set, now with this note: read-out: CDK9 % residual activity at 10 μM.
For `CCn1ncc2cc3cncc(Br)c3c([N+](=O)[O-])c21` [Compound 4, 8-Bromo-1-ethyl-9-nitro-1H-pyrazolo[3,4-g]isoquinoline], the remaining activity at 10 µM worked out at 18%.

In the next data set the test system is panel of 486 kinases.
Test: not given
Particulars: cited from earlier work.
Take `COc1ncc2cc3cnccc3c([N+](=O)[O-])c2n1` [I]: the “kinases inhibited when tested on a large panel of 486 kinases” value is listed as 12%.

The next data set concerns the target T4, RnDYRK1A-kd (Rattus norvegicus, UniProt Q63470).
T4 construct: RnDYRK1A-kd (Rattus norvegicus, amino acids 1–499 including the kinase domain, recombinant, expressed in bacteria); made in house; host or cells: bacteria
In words: ADP-Glo kinase inhibition assay, DYRK1A. The class given is biochemical. Particulars: read-out: DYRK1A % residual activity at 1 μM. On the procedure:
as §1, §2
On to `CCn1ncc2cc3cncc(Br)c3c([N+](=O)[O-])c21` [Compound 4, 8-Bromo-1-ethyl-9-nitro-1H-pyrazolo[3,4-g]isoquinoline], for which the remaining activity at 1 µM was found to be 52%.

The data set is the same for the next values; noted with them: read-out: DYRK1A % residual activity at 10 μM.
With `CCn1ncc2cc3cncc(Br)c3c([N+](=O)[O-])c21` [Compound 4, 8-Bromo-1-ethyl-9-nitro-1H-pyrazolo[3,4-g]isoquinoline], the remaining activity at 10 µM stood at 25%.

In the next data set the target is T5, GSK3β (Homo sapiens, UniProt P49841).
T5 construct: host or cells: Sf9 insect cells (baculovirus)
T5 sequence (P49841 whole entry): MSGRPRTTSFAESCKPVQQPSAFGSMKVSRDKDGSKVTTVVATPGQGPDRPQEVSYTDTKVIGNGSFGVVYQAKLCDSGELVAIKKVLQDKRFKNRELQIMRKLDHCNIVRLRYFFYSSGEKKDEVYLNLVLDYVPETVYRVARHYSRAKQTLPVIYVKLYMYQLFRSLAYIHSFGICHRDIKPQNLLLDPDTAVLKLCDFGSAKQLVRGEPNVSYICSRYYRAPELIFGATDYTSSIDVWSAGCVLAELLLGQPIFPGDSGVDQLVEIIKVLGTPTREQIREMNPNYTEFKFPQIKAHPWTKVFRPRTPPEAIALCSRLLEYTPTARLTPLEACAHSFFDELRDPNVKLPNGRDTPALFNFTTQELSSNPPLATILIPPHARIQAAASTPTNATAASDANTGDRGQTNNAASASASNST
Briefly: ADP-Glo kinase inhibition assay, GSK3β. Particulars: read-out: GSK3 % residual activity at 1 μM. The class given is biochemical. On the procedure:
as §1, §2
As for `CCn1ncc2cc3cncc(Br)c3c([N+](=O)[O-])c21` [Compound 4, 8-Bromo-1-ethyl-9-nitro-1H-pyrazolo[3,4-g]isoquinoline], the remaining activity at 1 µM stood at 88%.

The same data set, now with this note: read-out: GSK3 % residual activity at 10 μM.
In the case of `CCn1ncc2cc3cncc(Br)c3c([N+](=O)[O-])c21` [Compound 4, 8-Bromo-1-ethyl-9-nitro-1H-pyrazolo[3,4-g]isoquinoline], the remaining activity at 10 µM amounted to 80%.

The target of another data set is T6, CDK5/p25 (Homo sapiens, UniProt Q00535).
T6 construct: host or cells: bacteria
T6 sequence (Q00535 whole entry): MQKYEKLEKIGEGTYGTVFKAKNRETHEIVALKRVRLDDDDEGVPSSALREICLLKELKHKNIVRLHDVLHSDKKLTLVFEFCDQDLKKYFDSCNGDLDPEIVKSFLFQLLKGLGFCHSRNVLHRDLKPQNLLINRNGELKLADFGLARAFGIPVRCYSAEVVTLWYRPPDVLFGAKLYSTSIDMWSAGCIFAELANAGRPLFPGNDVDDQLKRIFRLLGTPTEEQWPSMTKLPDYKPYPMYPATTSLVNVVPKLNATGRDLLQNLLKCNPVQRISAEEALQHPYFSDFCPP
T6 sequence (Q15078 99-307, further chain): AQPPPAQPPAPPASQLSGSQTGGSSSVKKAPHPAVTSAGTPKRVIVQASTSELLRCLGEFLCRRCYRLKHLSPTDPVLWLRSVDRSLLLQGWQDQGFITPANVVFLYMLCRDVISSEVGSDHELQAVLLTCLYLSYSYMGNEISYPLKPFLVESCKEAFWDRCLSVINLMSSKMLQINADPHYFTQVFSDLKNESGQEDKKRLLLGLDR
Briefly: ADP-Glo kinase inhibition assay, CDK5/p25. Format: biochemical. Particulars: read-out: CDK5 % residual activity at 1 μM. On the procedure:
as §1, §2
Turning to `CCn1ncc2cc3cncc(Br)c3c([N+](=O)[O-])c21` [Compound 4, 8-Bromo-1-ethyl-9-nitro-1H-pyrazolo[3,4-g]isoquinoline], the remaining activity at 1 µM came out at 92%.

Still in this data set, the particulars now being: read-out: CDK5 % residual activity at 10 μM.
In the case of `CCn1ncc2cc3cncc(Br)c3c([N+](=O)[O-])c21` [Compound 4, 8-Bromo-1-ethyl-9-nitro-1H-pyrazolo[3,4-g]isoquinoline], the remaining activity at 10 µM amounted to 32%.

A further data set concerns the target T7, MmCLK1 (Mus musculus, UniProt P22518).
T7 construct: host or cells: bacteria
In words: ADP-Glo kinase inhibition assay, CLK1. The conditions noted are these: read-out: CLK1 % residual activity at 1 μM. The class given is biochemical. On the procedure:
as §1, §2
On to `CCn1ncc2cc3cncc(Br)c3c([N+](=O)[O-])c21` [Compound 4, 8-Bromo-1-ethyl-9-nitro-1H-pyrazolo[3,4-g]isoquinoline], for which the remaining activity at 1 µM worked out at 42%.

The data set is the same for the next values; noted with them: read-out: CLK1 % residual activity at 10 μM.
As for `CCn1ncc2cc3cncc(Br)c3c([N+](=O)[O-])c21` [Compound 4, 8-Bromo-1-ethyl-9-nitro-1H-pyrazolo[3,4-g]isoquinoline], the remaining activity at 10 µM is 18%.

A further data set addresses T8, CK1ε (Homo sapiens, UniProt P49674).
T8 construct: host or cells: Sf9 insect cells (baculovirus)
Briefly: ADP-Glo kinase inhibition assay, CK1ε. Particulars: 1 μM compound, 10 μM ATP, duplicate; read-out: CK1 % residual activity at 1 μM. Format: biochemical. On the procedure: as §1, §2
On to `CCn1ncc2cc3cncc(Br)c3c([N+](=O)[O-])c21` [Compound 4, 8-Bromo-1-ethyl-9-nitro-1H-pyrazolo[3,4-g]isoquinoline], for which the remaining activity at 1 µM worked out at 100%.

The same data set, now with this note: 10 μM compound, 10 μM ATP, duplicate; read-out: CK1 % residual activity at 10 μM.
Take `CCn1ncc2cc3cncc(Br)c3c([N+](=O)[O-])c21` [Compound 4, 8-Bromo-1-ethyl-9-nitro-1H-pyrazolo[3,4-g]isoquinoline]: the remaining activity at 10 µM was found to be 80%.

System in another data set: not given
Test: not given
Conditions: not given
Consider `O=[N+]([O-])c1c2ccncc2cc2cn[nH]c12`, for which the melting point (as a rule, the temperature of the solid-liquid transition) was greater than 250 °C.

On to `CS(=O)(=O)O.O=[N+]([O-])c1c2ccncc2cc2cn[nH]c12`, for which the melting point is greater than 250 °C.
